Organism: Rattus norvegicus
Assay: Open TG-GATES - Regimen: Single
Assay type: toxicity, organism-based, Sprague-Dawley
Parameters: regimen Single, gender Male, age 6 weeks
Settings: in vivo, po, 300 mg/kg, route gavage, dose level Middle; for APTT / Bas / Eos / Fbg / Hb / Ht / Lym / MCH / MCHC / MCV / Mono / Neu / PT / Plat / RBC / Ret / WBC: tissue Blood; for KIDNEY_L / KIDNEY_R / KIDNEY_TOTAL: tissue Kidney; for LIVER: tissue Liver; for A/G / ALP / ALT / AST / BUN / CRE / Ca / Cl / DBIL / GLC / IP / K / LDH / Na / PL / RALB / TBIL / TC / TG / TP / gamma-GTP: tissue Plasma

## CC(C)(S)[C@@H](N)C(=O)O [PENICILLAMINE]
3 h
  TERMINAL_BW: 203.8 g
  APTT: 16.5 s
  Bas: 0%
  Eos: 0.8%
  Fbg: 315.2 mg/dL
  Hb: 13.2 g/dL
  Ht: 40.7%
  Lym: 75.4%
  MCH: 20.9 pg
  MCHC: 32.3%
  MCV: 64.7 fL
  Mono: 3.8%
  Neu: 19.4%
  PT: 15.1 s
  Plat: 123.1 x10_4/uL
  RBC: 629.8 x10_4/ul
  Ret: 9%
  WBC: 73.3 x10_2/uL
  KIDNEY_L: 0.8 g
  KIDNEY_R: 0.9 g
  KIDNEY_TOTAL: 1.7 g
  LIVER: 8.6 g
  A/G: 0.9
  ALP: 1102.4 IU/L
  ALT: 43.6 IU/L
  AST: 73.4 IU/L
  BUN: 8.4 mg/dL
  CRE: 0.2 mg/dL
  Ca: 10.9 mg/dL
  Cl: 106.2 meq/L
  DBIL: 0.01 mg/dL
  GLC: 175 mg/dL
  IP: 8.4 mg/dL
  K: 4.3 meq/L
  LDH: 57.4 IU/L
  Na: 142.6 meq/L
  PL: 139.2 mg/dL
  RALB: 2.5 g/dL
  TBIL: 0.034 mg/dL
  TC: 73.8 mg/dL
  TG: 87.8 mg/dL
  TP: 5.3 g/dL
  gamma-GTP: 1 IU/L
6 h
  TERMINAL_BW: 200.3 g
  APTT: 14.8 s
  Bas: 0%
  Eos: 0.8%
  Fbg: 313.6 mg/dL
  Hb: 13.4 g/dL
  Ht: 41.5%
  Lym: 74.6%
  MCH: 20.4 pg
  MCHC: 32.3%
  MCV: 63.4 fL
  Mono: 3%
  Neu: 20.6%
  PT: 14.6 s
  Plat: 121.5 x10_4/uL
  RBC: 655.4 x10_4/ul
  Ret: 8.7%
  WBC: 87.9 x10_2/uL
  KIDNEY_L: 0.9 g
  KIDNEY_R: 0.9 g
  KIDNEY_TOTAL: 1.8 g
  LIVER: 8.2 g
  A/G: 0.9
  ALP: 1066.8 IU/L
  ALT: 36.6 IU/L
  AST: 72 IU/L
  BUN: 8.2 mg/dL
  CRE: 0.2 mg/dL
  Ca: 10.7 mg/dL
  Cl: 106.2 meq/L
  DBIL: 0.012 mg/dL
  GLC: 182.8 mg/dL
  IP: 9.5 mg/dL
  K: 4.4 meq/L
  LDH: 60.8 IU/L
  Na: 142.8 meq/L
  PL: 139.6 mg/dL
  RALB: 2.5 g/dL
  TBIL: 0.038 mg/dL
  TC: 79.2 mg/dL
  TG: 47.4 mg/dL
  TP: 5.2 g/dL
  gamma-GTP: 1 IU/L
9 h
  TERMINAL_BW: 198.7 g
  APTT: 16.2 s
  Bas: 0%
  Eos: 0.8%
  Fbg: 304.8 mg/dL
  Hb: 13.2 g/dL
  Ht: 40.9%
  Lym: 76.8%
  MCH: 20.8 pg
  MCHC: 32.2%
  MCV: 64.4 fL
  Mono: 3%
  Neu: 18.6%
  PT: 15.2 s
  Plat: 120.8 x10_4/uL
  RBC: 634.2 x10_4/ul
  Ret: 8.9%
  WBC: 73.6 x10_2/uL
  KIDNEY_L: 0.9 g
  KIDNEY_R: 0.9 g
  KIDNEY_TOTAL: 1.7 g
  LIVER: 7.7 g
  A/G: 0.9
  ALP: 1040.2 IU/L
  ALT: 32.8 IU/L
  AST: 67 IU/L
  BUN: 8 mg/dL
  CRE: 0.2 mg/dL
  Ca: 10.6 mg/dL
  Cl: 107.2 meq/L
  DBIL: 0.01 mg/dL
  GLC: 175.4 mg/dL
  IP: 9.9 mg/dL
  K: 4 meq/L
  LDH: 58 IU/L
  Na: 142.8 meq/L
  PL: 128.8 mg/dL
  RALB: 2.5 g/dL
  TBIL: 0.042 mg/dL
  TC: 73.6 mg/dL
  TG: 39.4 mg/dL
  TP: 5.2 g/dL
  gamma-GTP: 1 IU/L
24 h
  TERMINAL_BW: 216.3 g
  APTT: 15.1 s
  Bas: 0.2%
  Eos: 1%
  Fbg: 290.8 mg/dL
  Hb: 13.5 g/dL
  Ht: 41.5%
  Lym: 82.2%
  MCH: 21.1 pg
  MCHC: 32.5%
  MCV: 64.7 fL
  Mono: 3%
  Neu: 12.6%
  PT: 14 s
  Plat: 123.4 x10_4/uL
  RBC: 640.6 x10_4/ul
  Ret: 8.3%
  WBC: 101.5 x10_2/uL
  KIDNEY_L: 0.9 g
  KIDNEY_R: 0.9 g
  KIDNEY_TOTAL: 1.8 g
  LIVER: 10.1 g
  A/G: 0.9
  ALP: 1515 IU/L
  ALT: 39.2 IU/L
  AST: 65.8 IU/L
  BUN: 13.4 mg/dL
  CRE: 0.2 mg/dL
  Ca: 11.1 mg/dL
  Cl: 105.6 meq/L
  DBIL: 0.012 mg/dL
  GLC: 172.4 mg/dL
  IP: 8.2 mg/dL
  K: 4.1 meq/L
  LDH: 79.4 IU/L
  Na: 144.2 meq/L
  PL: 164.8 mg/dL
  RALB: 2.6 g/dL
  TBIL: 0.028 mg/dL
  TC: 86.6 mg/dL
  TG: 126 mg/dL
  TP: 5.5 g/dL
  gamma-GTP: 1.2 IU/L

From ChEMBL document CHEMBL3885861, “Open TG-GATES”
